Experimental findings from article PMC9616786, “Structure and function of the N-terminal extension of the formin INF2” (Cellular and Molecular Life Sciences, 2022) are described below.

The test concerns the target T1, purified CaM from bovine brain (Bos taurus, UniProt P62157).
T1 construct: Calmodulin from bovine brain; purchased Sigma-Aldrich Cat#208694; host or cells: bovine brain (tissue-purified)
The experiment in a line: Surface plasmon resonance, equilibrium binding of CaM to immobilized INF2 peptides. The note with it: SPR, in the presence of Ca2+ (1 mM CaCl2), 25 °C; Fig. 4B-D, Fig. S3F. The source says: For use in surface plasmon resonance analysis, the peptide corresponding to amino acids 2-19 of human INF2 and similar peptides with replacements in the W11, L14 and L18 residues were synthesized in an automated multiple peptide synthesizer (Multipep, Intavis, Köln, Germany) in the Proteomics Facility of the Centro Nacional de Biotecnología (CSIC, Madrid). The INF2 2–36 peptide was obtained as a bespoke product with the same modifications from pepMic (Suzhou, China). These peptides contained two G residues at its N terminus to separate the INF2 sequence from an additional N-terminal end K residue, which was biotinylated in the ε-amino group. For use in NMR studies, the INF2 2–36 and 2-19 peptides were synthesized to order, without any modification, by CASLO ApS (Denmark). All the peptides were synthesized using the solid-phase synthetic procedures and standard Fmoc [N-(9-fluorenyl)methoxycarbonyl] chemistry, and then underwent reverse-phase HPLC purification.
All surface plasmon resonance experiments were carried out at 25 °C in a Biacore 3000 (Cytiva) robotic biosensor. Analyses were performed using HBSP (10 mM HEPES pH 7.4, 150 mM NaCl, 0.005% surfactant P20) supplemented with 1 mM CaCl2 as running buffer and for the dilution of analytes and ligands. Biotinylated peptides were individually immobilized on a streptavidin-coated sensor chip in flow cells 2, 3 and 4 at a flow rate of 10 µl/min (20–50 RU captured). The empty flow cell 1 was used as a control for non-specific binding and bulk effects. Purified CaM was injected at different concentrations ranging from 13.2 nM to 9.6 µM in duplicate, at a flowrate of 50 µl/min, with an association time of 60 s followed by dissociation for 60 s. After that, the sensor chip was regenerated by injection of 10 mM glycine–HCl, pH 1.7, with a contact time of 12 s. […] Sensorgrams with different concentrations of CaM were overlaid, aligned and analyzed with BIAevaluation Software 4.1, using the double-reference method. […]
(Surface plasmon resonance follows binding to a sensor surface in real time, without labels.)
For the sequence “KGGSVKEGAQRKAAAAKEKAG [Peptide W11L14L18A, 2-19 INF2 peptide with the triple W11L14L18A mutation]”, the “affinity / interaction with CaM relative to the intact 2-19 peptide (in words)” value is on record as “undetectable”.

With “KGGSVKEGAQRKAAALKEKLG [Peptide W11A, 2-19 INF2 peptide with the W11A mutation]”, the “affinity / interaction with CaM relative to the intact 2-19 peptide (in words)” value was “undetectable”.

For “KGGSVKEGAQRKWAAAKEKAG [L14L18A 2-19 peptide, 2-19 INF2 peptide with the double L14L18A mutation]”, the “affinity / interaction with CaM relative to the intact 2-19 peptide (in words)” value is reported as “reduced affinity”.
